Experimental findings from patent US9452986B2, “6-heteroaryloxy- or 6-aryloxy-quinoline-2-carboxamides and method of use” (AbbVie Inc., priority 2014, dated 2016) are described below.

Read-outs that look alike come from different tables or passages of the source. Where only a bound is given, the exact number is not on record here.

One experiment addresses recombinant human Nav1.7 (Homo sapiens (Human), UniProt Q15858). Briefly: FRET-based membrane potential assay, recombinant human sodium channel Nav1.7. The format is cell-based. The gist of the method:
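Channel activation used veratridine at its EC80, set by a dilution curve each experiment, together with Leiurus scorpion venom, added 3 min after compound. Membrane-potential ratio signals from FLIPR Tetra in HEPES-buffered HBSS were fitted to a four-parameter Hill equation for percent inhibition and IC50.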

The test system of another experiment is osteoarthritic rats. Briefly: Osteoarthritic (OA) pain induced by sodium monoiodoacetate (MIA), hind limb grip force. The format is in vivo, rat. The note with it: Rattus norvegicus, 480 h, rat, 20 days following MIA injection, hind limb grip force, read-out: OA MPE; for inhibition in vivo at 10 mg/kg: OA dose 10 mg/kg; for inhibition in vivo at 30 mg/kg: OA dose 30 mg/kg. As to the method:
Osteoarthritic (OA) Pain Induced by Sodium Monoiodoacetate (MIA)
Pain behavior was assessed by measurement of hind limb grip force (GF) in adult osteoarthritic rats. Male Sprague Dawley rats, obtained from Charles River Laboratories, (Wilmington, Mass.), weighing 150-175 g, were injected in the unilateral knee join with a single intra-articular injection of sodium monoiodoacetate (MIA, 3 mg/rat). All rats were tested at 20 days following MIA injection. A behavioral measure of activity-induced pain was carried out. Measurements of the peak hind limb grip force were conducted by recording the maximum compressive force (CFmax), in grams of force, exerted on a hind limb strain gauge setup, in a commercially available grip force measurement system (Columbus Instruments, Columbus, Ohio).
During testing, each rat was gently restrained by grasping it around its rib cage and then allowed to grasp the wire mesh frame attached to the strain gauge. The experimenter then moved the animal in a rostral-to-caudal direction until the grip was broken. Each rat was sequentially tested twice at an approximately 2-3 minute interval to obtain a raw mean grip force (CFmax). This raw mean grip force data was in turn converted to a maximum hindlimb cumulative compressive force (CFmax), as the grams of force/kg of body weight, for each animal.
For evaluating the compound effects, the hind limb grip force was conducted 20 days following the intra-articular injection of MIA. A group of age-matched naïve (not injected with MIA) animals was added as a comparator to the drug-dosed groups. The vehicle control response for each group of MIA-treated animals was defined as the 0% response (0% effect), whereas the naïve control group was defined as the normal response and as 100% effect. The % effect for each dose group was expressed as % return of response to normalcy, compared to the naïve group. A percent maximal possible effect (% MPE) of testing compound was calculated according to the formula: (Treatment CFmax−Vehicle CFmax)/Vehicle CFmax]×100). Higher % effect numbers indicate increased relief from the pain in the model, with 100% indicating a return to the level of response seen in normal (non-osteoarthritic) animals. All experiments evaluating drug effects in this model were conducted in a randomized blinded fashion.
The animals were housed in Association for Assessment and Accreditation of Laboratory Animal Care (AAALAC) approved facilities at AbbVie Inc. in a temperature-regulated environment under a controlled 12-hour light-dark cycle, with lights on at 6:00 a.m. Food and water were available ad libitum at all times except during testing. All testing was done following procedures outlined in protocols approved by AbbVie Inc.'s Institutional Animal Care and Use Committee.

The next experiment concerns the target recombinant human Nav1.8 (Homo sapiens (Human), UniProt Q9Y5Y9). Briefly: FRET-based membrane potential assay, recombinant human sodium channel Nav1.8. The format is cell-based. The following applies: HEK293 cells stably expressing recombinant human Nav1.8; veratridine + scorpion venom depolarization.
Where [1] appears, read: read-out: FRET-Membrane Potential Nav1.7 IC50.
[2] abbreviates: HEK293 cells stably expressing recombinant human Nav1.7, veratridine + scorpion venom depolarization, read-out: FRET-Membrane Potential Nav1.7 IC50.

recombinant human Nav1.7, sequence (Q15858 whole entry): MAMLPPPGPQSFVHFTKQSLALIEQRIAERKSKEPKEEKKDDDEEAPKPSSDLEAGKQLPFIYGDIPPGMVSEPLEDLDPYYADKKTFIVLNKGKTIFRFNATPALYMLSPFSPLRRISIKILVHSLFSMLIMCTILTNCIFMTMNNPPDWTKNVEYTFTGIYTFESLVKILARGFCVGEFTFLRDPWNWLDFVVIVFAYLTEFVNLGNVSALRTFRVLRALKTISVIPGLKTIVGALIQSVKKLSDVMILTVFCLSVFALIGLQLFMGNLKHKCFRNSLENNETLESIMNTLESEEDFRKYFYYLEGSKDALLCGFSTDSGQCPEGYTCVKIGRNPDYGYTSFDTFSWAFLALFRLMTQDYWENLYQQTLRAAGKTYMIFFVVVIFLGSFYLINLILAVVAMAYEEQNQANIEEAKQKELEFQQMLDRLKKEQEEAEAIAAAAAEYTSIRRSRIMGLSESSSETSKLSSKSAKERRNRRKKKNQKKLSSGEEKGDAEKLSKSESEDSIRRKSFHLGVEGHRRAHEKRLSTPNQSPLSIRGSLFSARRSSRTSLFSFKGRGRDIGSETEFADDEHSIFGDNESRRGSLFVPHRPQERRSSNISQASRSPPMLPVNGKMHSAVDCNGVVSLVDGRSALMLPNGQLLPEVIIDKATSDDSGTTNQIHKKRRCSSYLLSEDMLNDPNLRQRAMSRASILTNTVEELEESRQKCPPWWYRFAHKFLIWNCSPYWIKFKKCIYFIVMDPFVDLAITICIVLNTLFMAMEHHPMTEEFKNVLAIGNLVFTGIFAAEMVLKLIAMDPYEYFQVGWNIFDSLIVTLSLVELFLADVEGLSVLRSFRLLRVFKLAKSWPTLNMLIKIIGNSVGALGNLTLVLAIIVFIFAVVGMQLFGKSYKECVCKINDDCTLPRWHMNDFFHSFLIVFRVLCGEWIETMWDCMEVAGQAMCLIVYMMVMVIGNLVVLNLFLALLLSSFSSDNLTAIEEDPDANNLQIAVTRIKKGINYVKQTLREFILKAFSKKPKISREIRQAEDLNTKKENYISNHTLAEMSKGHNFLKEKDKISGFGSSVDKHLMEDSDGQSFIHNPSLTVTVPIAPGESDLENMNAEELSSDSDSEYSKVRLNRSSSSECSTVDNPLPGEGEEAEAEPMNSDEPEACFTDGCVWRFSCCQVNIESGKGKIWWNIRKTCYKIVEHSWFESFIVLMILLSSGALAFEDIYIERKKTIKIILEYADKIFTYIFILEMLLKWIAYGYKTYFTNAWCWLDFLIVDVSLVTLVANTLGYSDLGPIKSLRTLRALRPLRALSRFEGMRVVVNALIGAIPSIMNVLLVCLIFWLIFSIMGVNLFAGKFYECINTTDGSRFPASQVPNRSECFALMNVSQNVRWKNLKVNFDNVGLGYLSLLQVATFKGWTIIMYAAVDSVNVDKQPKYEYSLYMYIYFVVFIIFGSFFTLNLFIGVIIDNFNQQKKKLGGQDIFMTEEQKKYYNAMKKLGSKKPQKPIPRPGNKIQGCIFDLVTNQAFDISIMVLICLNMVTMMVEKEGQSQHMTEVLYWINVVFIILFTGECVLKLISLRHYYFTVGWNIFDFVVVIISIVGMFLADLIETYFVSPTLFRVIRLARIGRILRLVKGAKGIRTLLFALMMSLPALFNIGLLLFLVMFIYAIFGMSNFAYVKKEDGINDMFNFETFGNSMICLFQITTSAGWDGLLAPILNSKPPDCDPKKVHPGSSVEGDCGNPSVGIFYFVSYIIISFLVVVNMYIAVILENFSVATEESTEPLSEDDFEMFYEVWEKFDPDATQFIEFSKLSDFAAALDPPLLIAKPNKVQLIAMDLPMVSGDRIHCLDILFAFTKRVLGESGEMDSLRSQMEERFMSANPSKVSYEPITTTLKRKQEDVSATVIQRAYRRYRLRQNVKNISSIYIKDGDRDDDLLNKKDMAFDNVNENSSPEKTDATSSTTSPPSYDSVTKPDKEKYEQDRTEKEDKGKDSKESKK
recombinant human Nav1.8, sequence (Q9Y5Y9 whole entry): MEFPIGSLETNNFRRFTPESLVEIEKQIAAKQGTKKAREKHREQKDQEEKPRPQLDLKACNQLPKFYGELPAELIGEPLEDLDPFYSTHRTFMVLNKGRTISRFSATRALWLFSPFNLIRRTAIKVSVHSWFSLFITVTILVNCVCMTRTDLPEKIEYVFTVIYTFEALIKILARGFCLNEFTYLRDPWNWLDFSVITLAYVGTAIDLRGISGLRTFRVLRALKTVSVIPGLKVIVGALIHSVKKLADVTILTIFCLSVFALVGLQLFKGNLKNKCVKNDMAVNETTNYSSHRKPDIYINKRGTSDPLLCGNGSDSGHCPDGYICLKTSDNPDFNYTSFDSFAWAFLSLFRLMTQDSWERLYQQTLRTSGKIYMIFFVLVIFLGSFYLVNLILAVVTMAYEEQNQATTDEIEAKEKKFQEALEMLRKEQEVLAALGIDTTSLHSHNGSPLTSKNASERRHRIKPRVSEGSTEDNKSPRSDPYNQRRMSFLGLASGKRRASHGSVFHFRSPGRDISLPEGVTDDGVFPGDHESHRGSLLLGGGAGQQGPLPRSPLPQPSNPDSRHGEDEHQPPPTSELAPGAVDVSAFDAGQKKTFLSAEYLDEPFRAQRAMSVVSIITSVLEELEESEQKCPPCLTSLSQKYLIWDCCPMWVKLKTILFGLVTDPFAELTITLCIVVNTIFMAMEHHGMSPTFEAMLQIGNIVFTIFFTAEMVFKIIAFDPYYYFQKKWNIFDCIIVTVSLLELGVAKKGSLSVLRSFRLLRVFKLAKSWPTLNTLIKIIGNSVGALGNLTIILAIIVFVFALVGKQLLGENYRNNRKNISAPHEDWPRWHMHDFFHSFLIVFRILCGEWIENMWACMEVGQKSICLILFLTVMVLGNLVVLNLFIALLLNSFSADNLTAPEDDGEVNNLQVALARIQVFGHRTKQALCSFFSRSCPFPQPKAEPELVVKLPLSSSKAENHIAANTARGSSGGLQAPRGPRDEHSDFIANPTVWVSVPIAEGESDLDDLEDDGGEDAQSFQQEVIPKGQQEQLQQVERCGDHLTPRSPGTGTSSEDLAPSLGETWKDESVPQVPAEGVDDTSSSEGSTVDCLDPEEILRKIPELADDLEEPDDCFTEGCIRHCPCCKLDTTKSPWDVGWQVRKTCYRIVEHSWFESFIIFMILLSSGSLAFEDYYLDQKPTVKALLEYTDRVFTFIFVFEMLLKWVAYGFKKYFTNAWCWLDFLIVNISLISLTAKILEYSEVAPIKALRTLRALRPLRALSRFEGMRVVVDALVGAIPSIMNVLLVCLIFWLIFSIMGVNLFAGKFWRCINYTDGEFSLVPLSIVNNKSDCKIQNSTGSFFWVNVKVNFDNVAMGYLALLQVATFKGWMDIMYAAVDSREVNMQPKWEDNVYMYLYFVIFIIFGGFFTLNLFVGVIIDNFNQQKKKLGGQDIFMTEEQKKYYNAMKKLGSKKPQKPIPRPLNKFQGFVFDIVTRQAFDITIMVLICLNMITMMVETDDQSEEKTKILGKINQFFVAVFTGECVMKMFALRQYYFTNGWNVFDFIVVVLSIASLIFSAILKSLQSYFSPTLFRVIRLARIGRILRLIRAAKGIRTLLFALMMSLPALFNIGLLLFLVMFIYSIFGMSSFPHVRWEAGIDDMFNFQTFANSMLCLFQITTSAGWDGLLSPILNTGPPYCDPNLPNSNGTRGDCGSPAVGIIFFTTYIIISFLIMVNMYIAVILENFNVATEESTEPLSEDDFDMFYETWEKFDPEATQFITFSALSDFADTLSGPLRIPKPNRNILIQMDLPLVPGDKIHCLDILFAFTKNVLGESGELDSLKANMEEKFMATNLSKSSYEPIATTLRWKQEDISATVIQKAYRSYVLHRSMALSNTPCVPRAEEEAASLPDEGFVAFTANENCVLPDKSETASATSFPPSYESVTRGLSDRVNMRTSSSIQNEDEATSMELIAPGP

As to `O=C(N[C@@H]1CS(=O)(=O)C[C@H]1O)c1ccc2cc(Oc3ccc(C(F)(F)F)cn3)ccc2n1` [Example 24, N-[(3S,4S)-4-hydroxy-1,1-dioxidotetrahydrothiophen-3-yl]-6-{[5-(trifluoromethyl)pyridin-2-yl]oxy}quinoline-2-carboxamide], at recombinant human Nav1.7 (setting [1]), the IC50 was determined as 1580 nM. In addition, in the experiment on osteoarthritic rats, the inhibition in vivo at 10 mg/kg came out at 62%.

On to `O=C(N[C@H]1CS(=O)(=O)C[C@H]1O)c1ccc2cc(Oc3ccc(C(F)(F)F)cn3)ccc2n1` [Example 26, N-[(3R,4S)-4-hydroxy-1,1-dioxidotetrahydrothiophen-3-yl]-6-{[5-(trifluoromethyl)pyridin-2-yl]oxy}quinoline-2-carboxamide], for which, on recombinant human Nav1.7 (setting [1]), the IC50 turned out to be 1990 nM. Besides, the inhibition in vivo at 10 mg/kg in the experiment with osteoarthritic rats amounted to 67%.

Consider `O=C(c1ccc2cc(Oc3ccc(C(F)(F)F)cn3)ccc2n1)N1CC(=O)N2CCC[C@H]2C1` [Example 27, (8aS)-2-[(6-{[5-(trifluoromethyl)pyridin-2-yl]oxy}quinolin-2-yl)carbonyl]hexahydropyrrolo[1,2-a]pyrazin-4(1H)-one], for which the IC50 at recombinant human Nav1.7 (setting [2]) was 1100 nM. In the experiment with osteoarthritic rats, the inhibition in vivo at 10 mg/kg was 49%.

For `CC(C)(O)CNC(=O)c1ccc2cc(Oc3ccc(C(F)(F)F)cn3)ccc2n1` [Example 30, N-(2-hydroxy-2-methylpropyl)-6-{[5-(trifluoromethyl)pyridin-2-yl]oxy}quinoline-2-carboxamide], the IC50 at recombinant human Nav1.7 (setting [2]) stood at 793 nM. The inhibition in vivo at 10 mg/kg in the experiment with osteoarthritic rats stood at 66%.

For `O=C(NC1CC[S+]([O-])CC1)c1ccc2cc(Oc3ccc(C(F)(F)F)cn3)ccc2n1` (centres unmarked) [Example 32, N-(1-oxidotetrahydro-2H-thiopyran-4-yl)-6-{[5-(trifluoromethyl)pyridin-2-yl]oxy}quinoline-2-carboxamide], the IC50 at recombinant human Nav1.7 (setting [1]) was determined as 535 nM. Further, the inhibition in vivo at 10 mg/kg in the experiment with osteoarthritic rats was determined as 23%.

In the case of `O=C(N[C@H]1C[C@@H](O)C1)c1ccc2cc(Oc3ccc(C(F)(F)F)cn3)ccc2n1` [Example 34, N-(cis-3-hydroxycyclobutyl)-6-{[5-(trifluoromethyl)pyridin-2-yl]oxy}quinoline-2-carboxamide], the IC50 at recombinant human Nav1.7 (FRET-Membrane Potential Nav1.7 IC50) was 841 nM. In addition, in the experiment on osteoarthritic rats, the inhibition in vivo at 10 mg/kg came to 41%.

In the case of `O=C(NCC1CCO1)c1ccc2cc(Oc3ccc(C(F)(F)F)cn3)ccc2n1` (centres unmarked) [Example 37, N-(oxetan-2-ylmethyl)-6-{[5-(trifluoromethyl)pyridin-2-yl]oxy}quinoline-2-carboxamide], the IC50 on recombinant human Nav1.7 (setting [2]) is 392 nM. Besides, in the experiment with osteoarthritic rats, the inhibition in vivo at 10 mg/kg came out at 29%.

For the molecule `C[C@@H](O)CNC(=O)c1ccc2cc(Oc3ccc(C(F)(F)F)cn3)ccc2n1` [Example 38, N-[(2R)-2-hydroxypropyl]-6-{[5-(trifluoromethyl)pyridin-2-yl]oxy}quinoline-2-carboxamide], the IC50 on recombinant human Nav1.7 (setting [1]) was found to be 311 nM. Also, the inhibition in vivo at 10 mg/kg in the experiment on osteoarthritic rats is 30%.

For the molecule `O=C(c1ccc2cc(Oc3ccc(C(F)(F)F)cn3)ccc2n1)N1CCNC2(CC2)C1` [Example 39, 4,7-diazaspiro[2.5]oct-7-yl(6-{[5-(trifluoromethyl)pyridin-2-yl]oxy}quinolin-2-yl)methanone], the IC50 at recombinant human Nav1.7 (setting [2]) came out at 735 nM. Also, the inhibition in vivo at 30 mg/kg with osteoarthritic rats is 43%.

Regarding `O=C1CC(NC(=O)c2ccc3cc(Oc4ccc(C(F)(F)F)cn4)ccc3n2)CCN1` (centres unmarked) [Example 40, N-(2-oxopiperidin-4-yl)-6-{[5-(trifluoromethyl)pyridin-2-yl]oxy}quinoline-2-carboxamide], the IC50 at recombinant human Nav1.7 (setting [1]) worked out at 285 nM. Besides, in the experiment with osteoarthritic rats, the inhibition in vivo at 10 mg/kg is 59%.

For the molecule `CO[C@H]1C[C@@H](NC(=O)c2ccc3cc(Oc4ccc(C(F)(F)F)cn4)ccc3n2)C1` [Example 41, N-(cis-3-methoxycyclobutyl)-6-{[5-(trifluoromethyl)pyridin-2-yl]oxy}quinoline-2-carboxamide], the IC50 on recombinant human Nav1.7 (setting [2]) worked out at 1270 nM. Further, the inhibition in vivo at 10 mg/kg with osteoarthritic rats is 67%.

For `CN(C)C(=O)CNC(=O)c1ccc2cc(Oc3ccc(C(F)(F)F)nc3)ccc2n1` [Example 42, N-[2-(dimethylamino)-2-oxoethyl]-6-{[6-(trifluoromethyl)pyridin-3-yl]oxy}quinoline-2-carboxamide], on recombinant human Nav1.7 (setting [2]), the half-maximal inhibitory concentration (IC50) was 1790 nM. Besides, the inhibition in vivo at 10 mg/kg in the experiment with osteoarthritic rats is 64%.

As to `C[C@H]1CN(C(=O)c2ccc3cc(Oc4ccc(C(F)F)cn4)ccc3n2)CCN1` [Example 43, (6-{[5-(difluoromethyl)pyridin-2-yl]oxy}quinolin-2-yl) [(3S)-3-methylpiperazin-1-yl]methanone], the IC50 on recombinant human Nav1.7 (setting [2]) was 3060 nM. In addition, the inhibition in vivo at 10 mg/kg in the experiment on osteoarthritic rats amounted to 71%.

In the case of `O=C(NC1CC(=O)N(c2ccc(F)cc2)C1)c1ccc2cc(Oc3ccc(C(F)(F)F)cn3)ccc2n1` (centres unmarked) [Example 54, N-[1-(4-fluorophenyl)-5-oxopyrrolidin-3-yl]-6-{[5-(trifluoromethyl)pyridin-2-yl]oxy}quinoline-2-carboxamide], the IC50 at recombinant human Nav1.7 (setting [2]) stood at 409 nM. For the same molecule, the inhibition in vivo at 10 mg/kg with osteoarthritic rats turned out to be 21%.

For the molecule `COCC1CN(C(=O)c2ccc3cc(Oc4ccc(C(F)(F)F)cn4)ccc3n2)C1` [Example 60, [3-(methoxymethyl)azetidin-1-yl](6-{[5-(trifluoromethyl)pyridin-2-yl]oxy}quinolin-2-yl)methanone], at recombinant human Nav1.7 (setting [2]), the IC50 came to 1260 nM. In addition, in the experiment on osteoarthritic rats, the inhibition in vivo at 10 mg/kg came out at 23%.

For the molecule `O=C(c1ccc2cc(Oc3ccc(C(F)(F)F)cn3)ccc2n1)N1CCNCC(F)(F)C1` [Example 417, (6,6-difluoro-1,4-diazepan-1-yl)(6-{[5-(trifluoromethyl)pyridin-2-yl]oxy}quinolin-2-yl)methanone], the IC50 amounted to 11500 nM on recombinant human Nav1.7 (setting [1]) and 2750 nM on recombinant human Nav1.8.

In the case of `CN(C)C(=O)CNC(=O)c1ccc2cc(Oc3ccc(C(F)F)cn3)ccc2n1` [Example 441, 6-{[5-(difluoromethyl)pyridin-2-yl]oxy}-N-[2-(dimethylamino)-2-oxoethyl]quinoline-2-carboxamide], the IC50 at recombinant human Nav1.7 (setting [1]) came out at 1150 nM. Moreover, the inhibition in vivo at 10 mg/kg in the experiment on osteoarthritic rats turned out to be 22%.

Consider `N#CC1CN(C(=O)c2ccc3cc(Oc4ccc(C(F)(F)F)cn4)ccc3n2)CCN1` (centres unmarked) [Example 483, 4-[(6-{[5-(trifluoromethyl)pyridin-2-yl]oxy}quinolin-2-yl)carbonyl]piperazine-2-carbonitrile], for which the half-maximal inhibitory concentration (IC50) on recombinant human Nav1.7 (setting [1]) is 3610 nM. Moreover, the inhibition in vivo at 10 mg/kg in the experiment on osteoarthritic rats was determined as 55%.

In the case of `O=C1C[C@@H](NC(=O)c2ccc3cc(Oc4ccc(C(F)(F)F)cn4)ccc3n2)CCN1` [Example 512, N-[(4S)-2-oxopiperidin-4-yl]-6-{[5-(trifluoromethyl)pyridin-2-yl]oxy}quinoline-2-carboxamide], the IC50 is 983 nM on recombinant human Nav1.7 (setting [1]) and 213 nM on recombinant human Nav1.8.

On to `O=C1C[C@H](NC(=O)c2ccc3cc(Oc4ccc(C(F)(F)F)cn4)ccc3n2)CCN1` [Example 521, N-[(4R)-2-oxopiperidin-4-yl]-6-{[5-(trifluoromethyl)pyridin-2-yl]oxy}quinoline-2-carboxamide], for which the IC50 was 2630 nM at recombinant human Nav1.7 (setting [1]) and 1100 nM on recombinant human Nav1.8.

Take `CN1CCC(N(C)C(=O)c2ccc3cc(Oc4ccc(C(F)(F)F)cn4)ccc3n2)CC1=O` (centres unmarked) [Example 529, N-methyl-N-(1-methyl-2-oxopiperidin-4-yl)-6-{[5-(trifluoromethyl)pyridin-2-yl]oxy}quinoline-2-carboxamide]: the results for the IC50 on recombinant human Nav1.7 (setting [1]) and on recombinant human Nav1.8 were 10300 nM and above 20000 nM, respectively.

As for `CN(CC(F)(F)F)C(=O)c1ccc2cc(Oc3ccc(C(F)(F)F)cn3)ccc2n1` [Example 616, N-methyl-N-(2,2,2-trifluoroethyl)-6-{[5-(trifluoromethyl)pyridin-2-yl]oxy}quinoline-2-carboxamide], the IC50 on recombinant human Nav1.7 (setting [2]) is 2630 nM. For the same molecule, the inhibition in vivo at 30 mg/kg in the experiment with osteoarthritic rats came out at 28%.

As usually defined, the IC50 is the concentration that inhibits the measured activity by half.
